Results reported in ChEMBL document CHEMBL4732240, “Synthesis and antibacterial evaluation of new monobactams” (2021).
≈ marks a conversion by molar mass, not a printed value.

Assays:
Type in all cases: functional
[1] = tested on: Enterobacter cloacae; test: Antibacterial activity against Enterobacter cloacae 700323 assessed as reduction in bacterial growth by CLSI based broth microdilution method
[2] = tested on: Escherichia coli; test: Antibacterial activity against Escherichia coli ATCC 8739 assessed as reduction in bacterial growth by CLSI based broth microdilution method
[3] = tested on: Enterobacter cloacae; test: Antibacterial activity against Enterobacter cloacae clinical isolate assessed as reduction in bacterial growth by CLSI based broth microdilution method
[4] = tested on: Escherichia coli; test: Antibacterial activity against Escherichia coli clinical isolate assessed as reduction in bacterial growth by CLSI based broth microdilution method
[5] = tested on: Pseudomonas aeruginosa; test: Antibacterial activity against Pseudomonas aeruginosa clinical isolate. assessed as reduction in bacterial growth by CLSI based broth microdilution method
[6] = tested on: Klebsiella pneumoniae; test: Antibacterial activity against Klebsiella pneumoniae 700603 assessed as reduction in bacterial growth by CLSI based broth microdilution method
[7] = tested on: Acinetobacter baumannii; test: Antibacterial activity against Acinetobacter baumannii clinical isolate assessed as reduction in bacterial growth by CLSI based broth microdilution method
[8] = tested on: Pseudomonas aeruginosa; test: Antibacterial activity against Pseudomonas aeruginosa 9027 assessed as reduction in bacterial growth by CLSI based broth microdilution method
[9] = tested on: Klebsiella pneumoniae; test: Antibacterial activity against Klebsiella pneumoniae clinical isolate assessed as reduction in bacterial growth by CLSI based broth microdilution method
[10] = tested on: Acinetobacter baumannii; test: Antibacterial activity against Acinetobacter baumannii ATCC 19606 assessed as reduction in bacterial growth by CLSI based broth microdilution method; settings: ATCC 19606 = CIP 70.34 = JCM 6841

SMILES | MIC [1] [µg/mL] | MIC [2] [µg/mL] | MIC [3] [µg/mL] | MIC [4] [µg/mL] | MIC [5] [µg/mL] | MIC [6] [µg/mL] | MIC [7] [µg/mL] | MIC [8] [µg/mL] | MIC [9] [µg/mL] | MIC [10] [µg/mL]
CC1(C)[C@H](NC(=O)/C(=N/O[C@@H](COc2ccc(NC(=O)N[C@H]3CCCNC3)cc2)C(=O)O)c2csc(N)n2)C(=O)N1OS(=O)(=O)O | 16 (≈ 23.4 µM) | 4 (≈ 5.84 µM) | 64 (≈ 93.5 µM) | 32 (≈ 46.7 µM) | 64 (≈ 93.5 µM) | > 64 | > 64 | 32 (≈ 46.7 µM) | 32 (≈ 46.7 µM) | > 64
CC1(C)[C@H](NC(=O)/C(=N\O[C@@H](COc2ccc(NC(=O)N[C@@H]3CCCNC3)cc2)C(=O)O)c2csc(N)n2)C(=O)N1OS(=O)(=O)O | 16 (≈ 23.4 µM) | 0.25 (≈ 0.365 µM) | 2 (≈ 2.92 µM) | 0.5 (≈ 0.73 µM) | 8 (≈ 11.7 µM) | 8 (≈ 11.7 µM) | 16 (≈ 23.4 µM) | 2 (≈ 2.92 µM) | 0.5 (≈ 0.73 µM) | 8 (≈ 11.7 µM)
CC1(C)[C@H](NC(=O)/C(=N/O[C@@H](COc2ccc(NC(=O)NC3CCNCC3)cc2)C(=O)O)c2csc(N)n2)C(=O)N1OS(=O)(=O)O | > 64 | 4 (≈ 5.84 µM) | 32 (≈ 46.7 µM) | 2 (≈ 2.92 µM) | 16 (≈ 23.4 µM) | > 64 | > 64 | 16 (≈ 23.4 µM) | 8 (≈ 11.7 µM) | > 64
CC1(C)[C@H](NC(=O)/C(=N\O[C@@H](COc2ccc(NC(=O)NC3CCNCC3)cc2)C(=O)O)c2csc(N)n2)C(=O)N1OS(=O)(=O)O | 32 (≈ 46.7 µM) | 0.25 (≈ 0.365 µM) | 4 (≈ 5.84 µM) | 1 (≈ 1.46 µM) | 4 (≈ 5.84 µM) | 32 (≈ 46.7 µM) | 64 (≈ 93.5 µM) | 2 (≈ 2.92 µM) | 1 (≈ 1.46 µM) | 16 (≈ 23.4 µM)
CC1(C)[C@H](NC(=O)/C(=N/O[C@@H](COc2ccc(NC(=O)N[C@@H]3CCCNC3)cc2)C(=O)O)c2csc(N)n2)C(=O)N1OS(=O)(=O)O | 32 (≈ 46.7 µM) | 8 (≈ 11.7 µM) | 64 (≈ 93.5 µM) | 32 (≈ 46.7 µM) | 64 (≈ 93.5 µM) | > 64 | > 64 | 32 (≈ 46.7 µM) | 32 (≈ 46.7 µM) | > 64
CC1(C)[C@H](NC(=O)/C(=N\O[C@@H](COc2ccc(NC(=O)N[C@H]3CCCNC3)cc2)C(=O)O)c2csc(N)n2)C(=O)N1OS(=O)(=O)O | 32 (≈ 46.7 µM) | 0.25 (≈ 0.365 µM) | 4 (≈ 5.84 µM) | 8 (≈ 11.7 µM) | 2 (≈ 2.92 µM) | 32 (≈ 46.7 µM) | 64 (≈ 93.5 µM) | 2 (≈ 2.92 µM) | 1 (≈ 1.46 µM) | 32 (≈ 46.7 µM)
